In article PMC6445168, “Design, synthesis and antimalarial activity of novel bis{N-[(pyrrolo[1,2-a]quinoxalin-4-yl)benzyl]-3-aminopropyl}amine derivatives” (Journal of Enzyme Inhibition and Medicinal Chemistry, 2017):
Read-outs that look alike come from different tables or passages of the source.

How the values were obtained:
[1] = test system: human telomeric quadruplex F21T; test: FRET melting experiments, F21T; format: binding; settings: compound at 5 μM, 200 nM oligonucleotide, K+ condition; result in words
Description: (§1) FRET melting experiments were performed with dual-labeled oligonucleotides mimicking the Plasmodium telomeric sequences FPf1T [FAM-^5′(GGGTTTA)3-GGG^3′-TAMRA] and FPf8T [FAM-^5′(GGGTTCA)3GGG^3′-TAMRA] and the human telomeric sequence F21T [FAM-(GGGTTA)3-GGG^3′- TAMRA][36]^,[43]. The oligonucleotides were prefolded in 10 mM lithium cacodylate buffer (pH 7.2), with 10 mM KCl and 90 mM LiCl (K^+ condition). […] The data obtained were normalized between 0 and 1, and the temperature required for half-denaturationof oligonucleotides corresponded to the emission value of 0.5 was calculated as ΔTm. Each experiment was performed in duplicate with 200 nM of labeled oligonucleotide and 0, 1, 2, or 5 μM of compound under K^+ condition. For each compound, two independent experiments were carried out. The data were plotted using OriginPro 9.1 software (OriginLab Corporation, Northampton, MA).

[2] = test system: Plasmodium telomeric quadruplex FPf8T; test: FRET melting experiments, FPf8T; format: binding, Plasmodium falciparum; settings: compound at 5 μM, 200 nM oligonucleotide, K+ condition; result in words
Description: as §1

[3] = test system: Plasmodium telomeric quadruplex FPf1T; test: FRET melting experiments, FPf1T; format: binding, Plasmodium falciparum; settings: compound at 5 μM, 200 nM oligonucleotide, K+ condition; result in words
Description: as §1

[4] = test system: P. falciparum CQ-sensitive strain 3D7; test: In vitro antiplasmodial activity, SYBR Green I fluorescence-based method, 3D7 strain; format: cell-based, Plasmodium falciparum; settings: for IC50: Plasmodium falciparum, 3D7, 48 h, read-out: P. falciparum strains IC50 values, 3D7; for Selectivity Index HepG2/3D7: ratio CC50 HepG2 / IC50 3D7
Description: (§2) The in vitro antiplasmodial activities were tested over concentrations ranging from 39 nM to 40 μM against culture-adapted Plasmodium falciparum reference strains 3D7 and W2. […] The parasites were cultivated in RPMI medium (Sigma-Aldrich, Lyon, France) supplemented with 0.5% Albumax I (Life Technologies corporation, Paisley, United Kingdom), hypoxanthine (Sigma-Aldrich), gentamicin (Sigma-Aldrich), and human erythrocytes and were incubated at 37 °C in a candle jar, as described previously. The P. falciparum drug susceptibility test was carried out in 96-well flat bottom sterile plates under a final volume of 250 μL. After a 48 h incubation with the drugs, quantities of DNA in treated and control cultures of parasites in human erythrocytes were compared according to the SYBR Green I (Sigma-Aldrich) fluorescence-based method[38]^,[39]. Briefly, after incubation, plates were frozen at -20 °C until use. They were then left to thaw for 2 h at room temperature and 100 μL of the homogenized culture were transferred to 96-well flat bottom sterile black plates (Nunc Inc) already containing 100 μL of the SYBR Green I lysis buffer (2xSYBR Green, 20 mM Tris base pH 7.5, 5 mM EDTA, 0.008% w/v saponin, 0.08% w/v Triton X-100). […] Plates were incubated for 1 h at room temperature and then read on a fluorescence plate reader (Tecan, Austria) using excitation and emission wavelengths of 485 and 535 nm, respectively.

[5] = test system: P. falciparum CQ-resistant strain W2; test: In vitro antiplasmodial activity, SYBR Green I fluorescence-based method, W2 strain; format: cell-based, Plasmodium falciparum; settings: for IC50: Plasmodium falciparum, read-out: P. falciparum strains IC50 values, W2; for Selectivity Index HepG2/W2: ratio CC50 HepG2 / IC50 W2
Description: as §2

[6] = Cytotoxicity evaluation, MTT assay; format: cell-based, human; settings: human, HepG2 cells (hepatocarcinoma cell line, ATCC HB-8065); HepG2, 72 h incubation, mean ± SD of three independent experiments
Description: (§3) These assays were performed toward the human HepG2 cell line (HepG2 CC50). […] These cells express many of the hepatocyte-specific metabolic enzymes, thus enabling the cytotoxicity of tested product metabolites to be evaluated. […] Duplicate assays were performed for each sample. Each plate-well was then microscope-examined for detecting possible precipitate formation before the medium was aspirated from the wells. 100 μL of MTT solution (0.5 mg/mL in medium without FCS) were then added to each well. […] After this time, the MTT solution was removed and DMSO (100 μL) was added to dissolve the resulting blue formazan crystals. Plates were shaken vigorously (300 rpm) for 5 minutes. The absorbance was measured at 570 nm with 630 nm as reference wavelength spectrophotometer using a BIO-TEK ELx808 Absorbance Microplate Reader. DMSO was used as blank and doxorubicin (Sigma Aldrich) as positive control. Cell viability was calculated as percentage of control (cells incubated without compound). The 50% cytotoxic concentration was determined from the dose-response curve by using the TableCurve 2D V5.0 software (Systat Software, San Jose, CA).

[7] = test system: L. donovani (MHOM/IN/00/DEVI) promastigotes; test: In vitro antileishmanial activity on promastigotes, MTT assay; format: cell-based; settings: Leishmania donovani, 72 h incubation, mean ± SD of three independent experiments
Description: L. donovani (MHOM/IN/00/DEVI) used in this study was provided by the CNR Leishmania (Montpellier, France). The effects of the tested compounds on the growth of L. donovani (MHOM/IN/00/DEVI)promastigotes were assessed by MTT assay[41] .Briefly, promastigotes in log-phase in Schneider′s medium supplemented with 20% fetal calf serum (FCS), 2 mM L-glutamine and antibiotics (100 U/mL penicillin and 100 μg/mL streptomycin), were incubated at an average density of 10^6 parasites/mL in sterile 96-well plates with various concentrations of compounds dissolved in DMSO (final concentration less than 0.5% v/v), in duplicate. Appropriate controls treated by DMSO and pentamidine or amphotericin B (reference drugs purchased from Sigma-Aldrich) were added to each set of experiments. After a 72 h incubation period at 27 °C, parasite metabolic activity was determined. Each plate-well was then microscope-examined for detecting possible precipitate formation. 20 μL of MTT 3–(4,5-dimethylthiazol-2-yl)-2,5-diphenyltetrazolium bromide) solution (5 mg/mL) were added to each well followed by incubation for another 4 h. The enzyme reaction was then stopped by addition of 100 μL of 50% isopropanol – 10% sodium dodecyl sulfate[42] .Plates were shaken vigorously (300 rpm) for 10 minutes and the absorbance measured in a plate reader at 570 nm in a BIO-TEK ELx808 Absorbance Microplate Reader. […] IC50 were calculated by non-linear regression analysis processed on doseresponse curves, using TableCurve 2D V5.0 software. IC50 values represent the mean value calculated from three independent experiments.

[8] = test system: HepG2 cell line; test: Cytotoxicity evaluation, MTT assay; format: cell-based, human; settings: HepG2, 72 h incubation, mean ± SD of three independent experiments
Description: as §3

[9] = chloroquine-sensitive strain 3D7, 48 h incubation
[10] = chloroquine-resistant strain W2, 48 h incubation

Row | SMILES | Thermal stabilization (ΔTm) on F21T [1] | Thermal stabilization (ΔTm) on FPf8T [2] | Thermal stabilization (ΔTm) on FPf1T [3] | IC50 [4, 9] [nM] | IC50 [5, 10] [nM] | CC50 at 72 h [6] [nM] | Selectivity Index HepG2/3D7 [4] | IC50 [7] [nM] | Selectivity Index HepG2/W2 [5] | IC50 [4] [nM] | IC50 ([5]; W2, 48 h) [nM] | CC50 [8] [nM]
1 | OC(c1cc(C(F)(F)F)nc2c(C(F)(F)F)cccc12)C1CCCCN1 (stereo not shown) [Mefloquine, reference compound] | very slight stabilization | very slight stabilization | very slight stabilization | 80 ± 8 | 32 ± 1 | – | – | – | – | – | – | –
2 | COc1ccc2c(c1)nc(-c1ccc(CNCCCN3CCN(CCCNCc4ccc(-c5nc6cc(OC)ccc6n6cccc56)cc4)CC3)cc1)c1cccn12 [1e, Bis{N-[4–(7-methoxypyrrolo[1,2-a]quinoxalin-4-yl)benzyl]-3-aminopropyl}piperazine] | – | more active on the Plasmodium sequences with the higher ΔTm | more active on the Plasmodium sequences with the higher ΔTm | 2620 ± 250 | 210 ± 30 | 1460 ± 600 | 0.56 | 2520 ± 100 | 6.95 | – | – | –
3 | COc1cccc2nc(-c3ccc(CNCCCN4CCN(CCCNCc5ccc(-c6nc7cccc(OC)c7n7cccc67)cc5)CC4)cc3)c3cccn3c12 [1i, Bis{N-[4–(9-methoxypyrrolo[1,2-a]quinoxalin-4-yl)benzyl]-3-aminopropyl}piperazine] | – | more active on the Plasmodium sequences with the higher ΔTm | more active on the Plasmodium sequences with the higher ΔTm | 1280 ± 100 | 320 ± 40 | 1330 ± 300 | 1.04 | 1580 ± 100 | 4.16 | – | – | –
4 | CCN(CC)CCCC(C)Nc1ccnc2cc(Cl)ccc12 (stereo not shown) [Chloroquine, reference compound] | very slight stabilization | very slight stabilization | very slight stabilization | – | – | – | – | – | – | 80 ± 3 | 200 ± 30 | –
5 | N=C(N)c1ccc(OCCCCCOc2ccc(C(=N)N)cc2)cc1 [Pentamidine, reference compound] | – | – | – | – | – | – | – | 5500 ± 800 | – | – | – | 2300 ± 500
